According to patent US9708628B2, “Cationic lipid having improved intracellular kinetics” (NOF CORPORATION, priority 2011, dated 2017):

Legend:
[1] = Particle size and surface potential of siRNA MENDs prepared by t-BuOH injecting method; assay type: physicochemical; settings: siRNA MEND; for PDI / size (nm) / zeta (mV): cationic lipid/cholesterol=70/30, DMG-PEG2000 3%
Protocol: (§1) A lipid solution in t-BuOH with a composition of cationic lipid/cholesterol=70/30, DMG-PEG2000 3% and a total lipid amount of 3000 nmol/400 μL (7.5 mM) was prepared in a 1.7 mL tube. In a separate 1.7 mL tube, an siRNA solution was prepared by mixing an siRNA aqueous solution containing siRNA (160 μg) and 20 mM malate buffer (pH 4.00, 30 mM NaCl) to total 50 μL. With vigorous stirring of the lipid solution, the siRNA solution was gradually added dropwise, and the mixed solution was taken in a 1 mL syringe. Then, 20 mM malate buffer (pH 4.00, 30 mM NaCl, 2 mL) was added into a 5 mL tube, and the mixed solution was gradually injected with vigorous stirring. Thereafter, the mixture was further diluted with PBS (7 mL) and centrifuged at 1000 g, 30° C. for 10 min in Amicon Ultra-15-100K to a volume of less than 1.5 mL. PBS (15 mL) was added, and the solution was centrifuged again to about 500-1000 μL. Finally, the MEND solution was adjusted by diluting with PBS to the object lipid concentration.
The particle size and surface potential of various MENDs were measured according to the method described in [Experimental Example 2] and the results are shown in Table 6.

[2] = test system: Factor VII (FVII); experiment: Knockdown effect of siRNA-encapsulated MEND prepared by t-BuOH injecting method; assay type: in vivo, ICR mice; settings: varying doses of siRNA, tail vein
Protocol: A MEND solution prepared by the method shown in [Experimental Example 28] was administered to 4-week-old male ICR mice at 3 mg siRNA/kg from the tail vein, and blood was collected 24 hr later. This blood sample was centrifuged at 1000 g, 10 min, 4° C., and the supernatant was recovered to obtain plasma. The amount of Factor VII (FVII) in the plasma was quantified by BIOPHEN FVII CHROMOGENIC ASSAY (HYPHEN BioMed).
as §1
MENDs prepared by the method shown in Experimental Example 32 were administered by a method similar to the method shown in Experimental Example 30 with varying doses of siRNA, and the knockdown effect was evaluated. The results are shown in FIG. 35, FIG. 36, and FIG. 37.

[3] = test system: HT1080 cells; experiment: Gene expression by MEND (luciferase assay, RLU/mg protein); assay type: cell-based; settings: cationic lipid:SOPE:Chol=3:4:3, PEG2000DSG; pDNA 0.4 μg/well, 24 hr
Protocol: Using B-2 (Example 1), B-2-1 (Comparative Example 1), and DODAP (Comparative Example 2) as cationic lipids, MENDs having a composition of cationic lipid:SOPE:Chol=3:4:3 were prepared by the method described in [Experimental Example 1] (2). For the preparation, PEG2000DSG was used as PEG lipid, and MEND solutions corresponding to 0.55 mM of the lipid concentration were prepared. For cationic MEND, lipids having a composition of DOTAP:DOPE:Chol:=3:4:3 were used, and the cationic MEND was prepared according to the method described in [Experimental Example 1] (3).
HT1080 cells were plated on a 24-well plate at 4×10^4 cells/500 μL/well 24 hr before, various MENDs were diluted with DMEM (FBS 10%+) to a pDNA amount of 0.4 μg/500 μL/well and transfected. 24 hr later, the cells were washed with PBS(−) (500 μL), 1× Lysis buffer was added to each well by 75 μL, and the mixture was stood at −80° C. for 30 min or longer. The frozen 24-well plate was thawed on ice, the cells were detached with a cell scraper, and the total amount thereof was transferred into an Eppendorf tube and centrifuged under the conditions of 15000 rpm, 4° C., 5 min. The supernatant (50 μL) was recovered in a different Eppendorf tube, and used for luciferase assay and BCA assay.
20 μL thereof was mixed with a Luciferase assay substrate (50 μL), and the luciferase activity in a given time was measured by a luminometer. The obtained lysate was diluted 5-fold with DDW to achieve 25 μL total volume. Thereto was added BCA Protein Assay Reagent (200 μL), and the mixture was stood at 37° C. for 30 min. Thereafter, the absorbance at 562 nm was measured, and the protein amount of the sample was calculated from the absorbance of a BSA solution having a known concentration. The luciferase activity (RLU) was adjusted by dividing with protein amount (mg), and the luciferase activity per cell protein amount (RLU/mg protein) was calculated.
Using B-2 (Example 1), B-2-2 (Example 2), and B-2-3 (Example 3) as cationic lipids, MENDs having a composition of cationic lipid:SOPE:Chol=3:4:3 were prepared by the method described in [Experimental Example 1] (2). For the preparation, PEG2000DSG was used as PEG lipid, and MEND solutions corresponding to 0.55 mM of the lipid concentration were prepared. The gene expression was evaluated by the method described in [Example 4] (2).
Using compositions of B-2-4 (Example 4):DOPE:Chol=3:3:4, B-2-5 (Example 5):POPE:Chol=3:3:4, B-2 (Example 1):SOPE:Chol=5:3:2 as lipids, MENDs were prepared according to [Experimental Example 1](1) and (2). For the preparation, PEG2000-DMG was used as PEG lipid, and MEND solutions corresponding to 0.55 mM of the lipid concentration were prepared.
The gene expression activity was evaluated by the method described in [Experimental Example 4] (2).

[4] = Particle size and surface potential of pDNA-encapsulating MENDs, dynamic light scattering (Zetasizer Nano); assay type: physicochemical; settings: pDNA MEND, cationic lipid:SOPE:Chol = 3:4:3
Protocol: A solution of pDNA encoding luciferase gene and protamine (CALBIOCHEM) solution were diluted with 10 mM HEPES buffer to 0.3 mg/mL and […], respectively. While stirring 0.3 mg/mL pDNA (125 μL), 0.24 mg/mL protamine (125 μL) was added dropwise in small portions to prepared an electrostatic complex of protamine and pDNA (N/P ratio=1.2) as a core of the vector. In the method described in the following (2), 10 mM HEPES buffer (pH 5.3) was used and, in the method described in (3), 10 mM HEPES buffer (pH 7.4) was used.
A lipid solution in ethanol was prepared by mixing 5 mM cationic lipid, 5 mM phospholipid and 5 mM cholesterol (Chol) at desired ratios to achieve 165 nmol total lipid in an Eppendorf tube, further adding various PEG lipids (1 mM solution in ethanol) in an amount corresponding to 3 mol % of the total lipid, and adding ethanol to achieve a total volume of 100 μL. While stirring the lipid solution in a vortex mixer, 100 μL of the nucleic acid electrostatic complex (10 mM HEPES; pH 5.3) prepared in [Experimental Example 1] (1) was quickly added, and thereafter 10 mM HEPES buffer (1.8 mL, adjusted to pH 5.3) was added to dilute the mixture to an ethanol concentration of 5%. The mixture was concentrated to about 50 μL by ultrafiltration using Amicon Ultra 4 (Millipore) under centrifugation conditions (room temperature, 2267 rpm, 20 min). Thereafter, it was diluted to 4 mL with 100 mM HEPES buffer (adjusted to pH 7.4), and again concentrated by centrifugation (2267 rpm, 20 min) under room temperature conditions. Finally, it was diluted with 10 mM HEPES buffer (pH 7.4) to a desired lipid concentration.
A solution of each lipid in chloroform (5 mM DOTAP 24.75 μL, 5 mM DOPE 33 μL, 5 mM Chol 24.75 μL) were mixed in a glass test tube at DOTAP:DOPE:Chol=3:4:3 to achieve 412.5 nmol total lipid. Ethanol was added to a total amount of 250 μL, and the mixture was dried under reduced pressure in a desiccator. The solvent was evaporated to give a lipid thin film. To the lipid thin film was added 250 μL of the gene electrostatic complex (in 10 mM HEPES; pH 7.4) prepared in [Experimental Example 1] (1) to a total lipid concentration of 1.65 mM, and the mixture was stood at room temperature for 10 min to allow for hydration, and sonicated by a sonicator (AIWA MEDICAL […] CO., LTD.) for 1 min.
The particle size and the surface potential were measured by the dynamic light scattering method (Zetasizer Nano; Malve Rn). The particle size and the surface potential of the various MENDs prepared by the preparation method of [Experimental Example 1] are shown in Table 3. The charge of B-2 and DODAP at physiological pH was in a preferable mode of −10 to +10 mV, whereas that of B-2-1 was +12.3, which is not less than +10 mV.
(1) MEND having a composition of B-2-4 (Example 4):DOPE:Chol=3:3:4 or B-2-5 (Example 5):POPE:Chol=3:4:3 was prepared according to the method described in [Experimental Example 1] (1) and (2).
The particle size and the surface potential were measured by the dynamic light scattering method (Zetasizer Nano; Malvern). The particle size and the surface potential of the various MENDs prepared by the preparation method of [Experimental Example 1] are shown in Table 4.

SMILES | PDI [1] | size (nm) [1] [nm] | zeta (mV) [1] [mV] | charge at physiological pH [1] | PDI [4] | size (nm) [4] [nm] | zeta (mV) [4] [mV] | FVII expression level (knockdown effect) [2] | gene expression activity (luciferase activity per cell protein) [3]
Cc1c(C)c2c(c(C)c1OC(=O)CCC(=O)OCCC1CCN(CCSSCCN3CCC(CCOC(=O)CCC(=O)Oc4c(C)c(C)c5c(c4C)CCC(C)(CCCC(C)CCCC(C)CCCC(C)C)O5)CC3)CC1)CCC(C)(CCCC(C)CCCC(C)CCCC(C)C)O2 (centres unmarked) [TS-P4C2] | 0.07 | 125 | −8.5 | – | – | – | – | highest knockdown effect | –
Cc1c(C)c2c(c(C)c1OC(=O)CCC(=O)OCC1CCN(CCSSCCN3CCC(COC(=O)CCC(=O)Oc4c(C)c(C)c5c(c4C)CCC(C)(CCCC(C)CCCC(C)CCCC(C)C)O5)CC3)CC1)CCC(C)(CCCC(C)CCCC(C)CCCC(C)C)O2 (centres unmarked) [TS-P4C1] | 0.13 | 113 | −11.9 | – | – | – | – | highest knockdown effect | –
Cc1c(C)c2c(c(C)c1OC(=O)CCC(=O)NCCCN(C)CCSSCCN(C)CCCNC(=O)CCC(=O)Oc1c(C)c(C)c3c(c1C)CCC(C)(CCCC(C)CCCC(C)CCCC(C)C)O3)CCC(C)(CCCC(C)CCCC(C)CCCC(C)C)O2 (centres unmarked) [TSamide-C3M] | 0.21 | 93 | 7.0 | weak positive charge | – | – | – | – | –
Cc1c(C)c2c(c(C)c1OC(=O)CCC(=O)OCC1CCCN(CCSSCCN3CCCC(COC(=O)CCC(=O)Oc4c(C)c(C)c5c(c4C)CCC(C)(CCCC(C)CCCC(C)CCCC(C)C)O5)C3)C1)CCC(C)(CCCC(C)CCCC(C)CCCC(C)C)O2 (centres unmarked) [TS-P3C1] | 0.13 | 118 | −9.8 | – | – | – | – | – | –
CCCCCCCCCCCCCCCCCC(=O)OCCCN(C)CCSSCCN(C)CCCOC(=O)CCCCCCCCCCCCCCCCC [Example B-2-2] | – | – | – | – | 0.132 | 134.6 | −5.77 | – | inferior to that of B-2, but exceeds that of conventional pH-responsive lipid cationic lipid, DODAP
Cc1c(C)c2c(c(C)c1OC(=O)CCC(=O)OCCCCCN(CCSSCCN(CCCCCOC(=O)CCC(=O)Oc1c(C)c(C)c3c(c1C)CCC(C)(CCCC(C)CCCC(C)CCCC(C)C)O3)C(C)C)C(C)C)CCC(C)(CCCC(C)CCCC(C)CCCC(C)C)O2 (centres unmarked) [TS-C5P] | 0.13 | 125 | −6.4 | – | – | – | – | – | –

More lines, main results first:

PDI [1] | size (nm) [1] [nm] | zeta (mV) [1] [mV] | charge at physiological pH [1] | PDI [4] | size (nm) [4] [nm] | zeta (mV) [4] [mV] | SMILES | FVII expression level (knockdown effect) [2] | gene expression activity (luciferase activity per cell protein) [3]
0.07 | 118 | −9.8 | – | – | – | – | CCN(CCCCOC(=O)CCC(=O)Oc1c(C)c(C)c2c(c1C)CCC(C)(CCCC(C)CCCC(C)CCCC(C)C)O2)CCSSCCN(CC)CCCCOC(=O)CCC(=O)Oc1c(C)c(C)c2c(c1C)CCC(C)(CCCC(C)CCCC(C)CCCC(C)C)O2 (centres unmarked) [TS-C4E] | – | –
0.13 | 120 | −13.0 | – | – | – | – | Cc1c(C)c2c(c(C)c1OC(=O)CCCC(=O)OCCCN(C)CCSSCCN(C)CCCOC(=O)CCCC(=O)Oc1c(C)c(C)c3c(c1C)CCC(C)(CCCC(C)CCCC(C)CCCC(C)C)O3)CCC(C)(CCCC(C)CCCC(C)CCCC(C)C)O2 (centres unmarked) [TG-C3M] | – | –
– | – | – | – | 0.091 | 148.7 | −7.97 | CCCCC/C=C\C/C=C\CCCCCCCC(=O)OCCCN(C)CCSSCCN(C)CCCOC(=O)CCCCCCC/C=C\C/C=C\CCCCC [Example B-2-3] | – | inferior to that of B-2, but exceeds that of conventional pH-responsive lipid cationic lipid, DODAP
0.12 | 114 | −12.2 | – | – | – | – | Cc1c(C)c2c(c(C)c1OC(=O)CCC(=O)OCC1CCCCN1CCSSCCN1CCCCC1COC(=O)CCC(=O)Oc1c(C)c(C)c3c(c1C)CCC(C)(CCCC(C)CCCC(C)CCCC(C)C)O3)CCC(C)(CCCC(C)CCCC(C)CCCC(C)C)O2 (centres unmarked) [TS-P2C1] | – | –
